Measured values taken from patent publication US20100267561A1, “HERBICIDAL PYRIDAZINONE DERIVATIVES” (priority 2007, published 2010).

Legend:
Assay type in all cases: in vivo
[1] = system: giant foxtail (Setaria faberi); experiment: Test A pre-/postemergence plant response
Excerpt: (§1) Seeds of species selected from barnyardgrass (Echinochloa crus-galli), large crabgrass (Digitaria sanguinalis), giant foxtail (Setaria faberi), blackgrass (Alopecurus myosuroides), canarygrass (Phalaris minor), morningglory (Ipomoea coccinea), pigweed (Amaranthus retroflexus), velvetleaf (Abutilon theophrasti), wheat (Triticum aestivum), and corn (Zea mays) were planted into a blend of loam soil and sand and treated preemergence with a directed soil spray using test chemicals formulated in a non-phytotoxic solvent mixture which included a surfactant. At the same time these species were also treated with postemergence applications of test chemicals formulated in the same manner.
(§2) Plants ranged in height from 2 to 10 cm and were in the one- to two-leaf stage for the postemergence treatment. Treated plants and untreated controls were maintained in a greenhouse for approximately 10 days, after which time all treated plants were compared to untreated controls and visually evaluated for injury. Plant response ratings, summarized in Table A, are based on a 0 to 100 scale where 0 is no effect and 100 is complete control. A dash (-) response means no test results.

[2] = system: canarygrass (Phalaris minor); experiment: Test A pre-/postemergence plant response
Excerpt: as §1, §2

[3] = system: blackgrass (Alopecurus myosuroides); experiment: Test A pre-/postemergence plant response
Excerpt: as §1, §2

[4] = system: pigweed (Amaranthus retroflexus); experiment: Test A pre-/postemergence plant response
Excerpt: as §1, §2

[5] = system: wheat (Triticum aestivum); experiment: Test A pre-/postemergence plant response
Excerpt: as §1, §2

corn (Zea mays) = experiment: Test A pre-/postemergence plant response
Excerpt: as §1, §2

[6] = system: barnyardgrass (Echinochloa crus-galli); experiment: Test A pre-/postemergence plant response
Excerpt: as §1, §2

[7] = system: large crabgrass (Digitaria sanguinalis); experiment: Test A pre-/postemergence plant response
Excerpt: as §1, §2

[8] = system: ducksalad (Heteranthera limosa); experiment: Test B flooded paddy test plant response
Procedure, shortened: (§3)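 Paddy-water application to 2-leaf plants in pots held under 3 cm of flooding; response is a 0–100 visual control rating against controls after 13 to 15 days, and a dash marks a missing result.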

[9] = system: umbrella sedge (Cyperus difformis); experiment: Test B flooded paddy test plant response
Procedure, shortened: as §3

rice (Oryza sativa) = experiment: Test B flooded paddy test plant response
Procedure, shortened: as §3

[10] = system: barnyardgrass (Echinochloa crus-galli); experiment: Test B flooded paddy test plant response
Procedure, shortened: as §3

[11] = system: velvetleaf (Abutilon theophrasti); experiment: Test A pre-/postemergence plant response
Excerpt: as §1, §2

[12] = system: morningglory (Ipomoea coccinea); experiment: Test A pre-/postemergence plant response
Excerpt: as §1, §2

[13] = Postemergence, 31 g ai/ha, 0 to 100 scale (0 no effect, 100 complete control)
[14] = Postemergence, 125 g ai/ha, 0 to 100 scale, 0 no effect, 100 complete control
[15] = Preemergence, 31 g ai/ha, 0 to 100 scale, 0 is no effect, 100 is complete control
[16] = Preemergence, 125 g ai/ha, 0 to 100 scale (0 no effect, 100 complete control)
[17] = Flood (flooded paddy test), 62 g ai/ha, scale 0 to 100, 0 no effect, 100 complete control
[18] = Flood (flooded paddy test), 125 g ai/ha, scale 0 to 100, 0 no effect, 100 complete control
[19] = Flood (flooded paddy test), 250 g ai/ha, scale 0 to 100, 0 no effect, 100 complete control
[20] = Flood, 31 g ai/ha, scale 0 to 100
[21] = Postemergence, 500 g ai/ha, 0 to 100 scale, 0 no effect, 100 complete control
[22] = Preemergence, 500 g ai/ha, 0 to 100 scale (0 no effect, 100 complete control)

## COc1nn(C)c(=O)c(-n2nc(-c3ccc(Br)cc3)cc2C)c1O [Compound 93]
[1]; [13]
  Plant response rating, Foxtail, Giant: 100
[1]; [14]
  Plant response rating, Foxtail, Giant: 100
[1]; [15]
  Plant response rating, Foxtail, Giant: 90
[1]; [16]
  Plant response rating, Foxtail, Giant: 100
[2]; [13]
  Plant response rating, Canarygrass: 80
[2]; [14]
  Plant response rating, Canarygrass: 100
[2]; [15]
  Plant response rating, Canarygrass: 10
[2]; [16]
  Plant response rating, Canarygrass: 90
[3]; [13]
  Plant response rating, Blackgrass: 90
[3]; [14]
  Plant response rating, Blackgrass: 100
[3]; [15]
  Plant response rating, Blackgrass: 30
[3]; [16]
  Plant response rating, Blackgrass: 100
[4]; [13]
  Plant response rating, Pigweed: 0
[4]; [14]
  Plant response rating, Pigweed: 0
[4]; [15]
  Plant response rating, Pigweed: 0
[4]; [16]
  Plant response rating, Pigweed: 0
[5]; [13]
  Plant response rating, Wheat: 70
[5]; [14]
  Plant response rating, Wheat: 80
[5]; [15]
  Plant response rating, Wheat: 50
[5]; [16]
  Plant response rating, Wheat: 80
Corn (Zea mays); [13]
  Plant response rating, Corn: 80
Corn (Zea mays); [14]
  Plant response rating, Corn: 100
Corn (Zea mays); [15]
  Plant response rating, Corn: 30
Corn (Zea mays); [16]
  Plant response rating, Corn: 60
[6]; [13]
  Plant response rating, Barnyardgrass: 100
[6]; [14]
  Plant response rating, Barnyardgrass: 100
[6]; [15]
  Plant response rating, Barnyardgrass: 20
[6]; [16]
  Plant response rating, Barnyardgrass: 100
[7]; [13]
  Plant response rating, Crabgrass, Large: 100
[7]; [14]
  Plant response rating, Crabgrass, Large: 100
[7]; [15]
  Plant response rating, Crabgrass, Large: 20
[7]; [16]
  Plant response rating, Crabgrass, Large: 100

## Cc1nn(-c2ccc(Cl)cc2)cc1-c1c(O)cnn(C)c1=O [Compound 29]
[8]; [17]
  Plant response rating, Ducksalad: 0
[8]; [18]
  Plant response rating, Ducksalad: 0
[8]; [19]
  Plant response rating, Ducksalad: 0
[8]; [20]
  Plant response rating, Ducksalad: 0
[9]; [17]
  Plant response rating, Sedge, Umbrella: 0
[9]; [18]
  Plant response rating, Sedge, Umbrella: 0
[9]; [19]
  Plant response rating, Sedge, Umbrella: 0
[9]; [20]
  Plant response rating, Sedge, Umbrella: 0
Rice (Oryza sativa); [17]
  Plant response rating, Rice: 0
Rice (Oryza sativa); [18]
  Plant response rating, Rice: 0
Rice (Oryza sativa); [19]
  Plant response rating, Rice: 0
Rice (Oryza sativa); [20]
  Plant response rating, Rice: 0
[10]; [17]
  Plant response rating, Barnyardgrass: 0
[10]; [18]
  Plant response rating, Barnyardgrass: 0
[10]; [19]
  Plant response rating, Barnyardgrass: 0
[10]; [20]
  Plant response rating, Barnyardgrass: 0
[1]; [14]
  Plant response rating, Foxtail, Giant: 0
[1]; [21]
  Plant response rating, Foxtail, Giant: 80
[1]; [16]
  Plant response rating, Foxtail, Giant: 60
[1]; [22]
  Plant response rating, Foxtail, Giant: 100
[11]; [14]
  Plant response rating, Velvetleaf: 0
[11]; [21]
  Plant response rating, Velvetleaf: 0
[11]; [16]
  Plant response rating, Velvetleaf: 0
[11]; [22]
  Plant response rating, Velvetleaf: 0
[4]; [14]
  Plant response rating, Pigweed: 0
[4]; [21]
  Plant response rating, Pigweed: 0
[4]; [16]
  Plant response rating, Pigweed: 0
[4]; [22]
  Plant response rating, Pigweed: 0
[12]; [14]
  Plant response rating, Morningglory: 0
[12]; [21]
  Plant response rating, Morningglory: 0
[12]; [16]
  Plant response rating, Morningglory: 0
[12]; [22]
  Plant response rating, Morningglory: 0
[5]; [14]
  Plant response rating, Wheat: 0
[5]; [21]
  Plant response rating, Wheat: 20
[5]; [16]
  Plant response rating, Wheat: 0
[5]; [22]
  Plant response rating, Wheat: 0
Corn (Zea mays); [14]
  Plant response rating, Corn: 0
Corn (Zea mays); [21]
  Plant response rating, Corn: 0
Corn (Zea mays); [16]
  Plant response rating, Corn: 0
Corn (Zea mays); [22]
  Plant response rating, Corn: 0
[6]; [14]
  Plant response rating, Barnyardgrass: 10
[6]; [21]
  Plant response rating, Barnyardgrass: 50
[6]; [16]
  Plant response rating, Barnyardgrass: 0
[6]; [22]
  Plant response rating, Barnyardgrass: 70
[7]; [14]
  Plant response rating, Crabgrass, Large: 0
[7]; [21]
  Plant response rating, Crabgrass, Large: 50
[7]; [16]
  Plant response rating, Crabgrass, Large: 0
[7]; [22]
  Plant response rating, Crabgrass, Large: 40

## COc1ccc(-c2cc(C)n(-c3c(O)cnn(C)c3=O)n2)cc1 [Compound 62]
[8]; [17]
  Plant response rating, Ducksalad: 0
[8]; [18]
  Plant response rating, Ducksalad: 0
[8]; [19]
  Plant response rating, Ducksalad: 0
[8]; [20]
  Plant response rating, Ducksalad: 0
[9]; [17]
  Plant response rating, Sedge, Umbrella: 0
[9]; [18]
  Plant response rating, Sedge, Umbrella: 0
[9]; [19]
  Plant response rating, Sedge, Umbrella: 0
[9]; [20]
  Plant response rating, Sedge, Umbrella: 0
Rice (Oryza sativa); [17]
  Plant response rating, Rice: 0
Rice (Oryza sativa); [18]
  Plant response rating, Rice: 0
Rice (Oryza sativa); [19]
  Plant response rating, Rice: 0
Rice (Oryza sativa); [20]
  Plant response rating, Rice: 0
[10]; [17]
  Plant response rating, Barnyardgrass: 0
[10]; [18]
  Plant response rating, Barnyardgrass: 0
[10]; [19]
  Plant response rating, Barnyardgrass: 0
[10]; [20]
  Plant response rating, Barnyardgrass: 0
[1]; [14]
  Plant response rating, Foxtail, Giant: 40
[1]; [21]
  Plant response rating, Foxtail, Giant: 60
[1]; [16]
  Plant response rating, Foxtail, Giant: 0
[1]; [22]
  Plant response rating, Foxtail, Giant: 30
[11]; [14]
  Plant response rating, Velvetleaf: 0
[11]; [21]
  Plant response rating, Velvetleaf: 0
[11]; [16]
  Plant response rating, Velvetleaf: 0
[11]; [22]
  Plant response rating, Velvetleaf: 0
[4]; [14]
  Plant response rating, Pigweed: 0
[4]; [21]
  Plant response rating, Pigweed: 0
[4]; [16]
  Plant response rating, Pigweed: 0
[4]; [22]
  Plant response rating, Pigweed: 0
[12]; [14]
  Plant response rating, Morningglory: 0
[12]; [21]
  Plant response rating, Morningglory: 0
[12]; [16]
  Plant response rating, Morningglory: 0
[12]; [22]
  Plant response rating, Morningglory: 0
[5]; [14]
  Plant response rating, Wheat: 0
[5]; [21]
  Plant response rating, Wheat: 20
[5]; [16]
  Plant response rating, Wheat: 0
[5]; [22]
  Plant response rating, Wheat: 0
Corn (Zea mays); [14]
  Plant response rating, Corn: 0
Corn (Zea mays); [21]
  Plant response rating, Corn: 40
Corn (Zea mays); [16]
  Plant response rating, Corn: 0
Corn (Zea mays); [22]
  Plant response rating, Corn: 20
[6]; [14]
  Plant response rating, Barnyardgrass: 40
[6]; [21]
  Plant response rating, Barnyardgrass: 100
[6]; [16]
  Plant response rating, Barnyardgrass: 10
[6]; [22]
  Plant response rating, Barnyardgrass: 90
[7]; [14]
  Plant response rating, Crabgrass, Large: 50
[7]; [21]
  Plant response rating, Crabgrass, Large: 90
[7]; [16]
  Plant response rating, Crabgrass, Large: 20
[7]; [22]
  Plant response rating, Crabgrass, Large: 60

## CCc1cc(-c2ccc(Cl)s2)nn1-c1c(O)cnn(C)c1=O [Compound 63]
[8]; [17]
  Plant response rating, Ducksalad: 0
[8]; [18]
  Plant response rating, Ducksalad: 0
[8]; [19]
  Plant response rating, Ducksalad: 0
[8]; [20]
  Plant response rating, Ducksalad: 0
[9]; [17]
  Plant response rating, Sedge, Umbrella: 0
[9]; [18]
  Plant response rating, Sedge, Umbrella: 0
[9]; [19]
  Plant response rating, Sedge, Umbrella: 0
[9]; [20]
  Plant response rating, Sedge, Umbrella: 0
Rice (Oryza sativa); [17]
  Plant response rating, Rice: 0
Rice (Oryza sativa); [18]
  Plant response rating, Rice: 0
Rice (Oryza sativa); [19]
  Plant response rating, Rice: 0
Rice (Oryza sativa); [20]
  Plant response rating, Rice: 0
[10]; [17]
  Plant response rating, Barnyardgrass: 0
[10]; [18]
  Plant response rating, Barnyardgrass: 0
[10]; [19]
  Plant response rating, Barnyardgrass: 0
[10]; [20]
  Plant response rating, Barnyardgrass: 0
[1]; [13]
  Plant response rating, Foxtail, Giant: 0
[1]; [14]
  Plant response rating, Foxtail, Giant: 60
[1]; [15]
  Plant response rating, Foxtail, Giant: 0
[1]; [16]
  Plant response rating, Foxtail, Giant: 0
[11]; [13]
  Plant response rating, Velvetleaf: 0
[11]; [14]
  Plant response rating, Velvetleaf: 0
[11]; [15]
  Plant response rating, Velvetleaf: 0
[11]; [16]
  Plant response rating, Velvetleaf: 0
[4]; [13]
  Plant response rating, Pigweed: 0
[4]; [14]
  Plant response rating, Pigweed: 0
[4]; [15]
  Plant response rating, Pigweed: 0
[4]; [16]
  Plant response rating, Pigweed: 0
[12]; [13]
  Plant response rating, Morningglory: 0
[12]; [14]
  Plant response rating, Morningglory: 0
[12]; [15]
  Plant response rating, Morningglory: 0
[12]; [16]
  Plant response rating, Morningglory: 0
[5]; [13]
  Plant response rating, Wheat: 0
[5]; [14]
  Plant response rating, Wheat: 20
[5]; [15]
  Plant response rating, Wheat: 0
[5]; [16]
  Plant response rating, Wheat: 0
Corn (Zea mays); [13]
  Plant response rating, Corn: 0
Corn (Zea mays); [14]
  Plant response rating, Corn: 30
Corn (Zea mays); [15]
  Plant response rating, Corn: 0
Corn (Zea mays); [16]
  Plant response rating, Corn: 0
[6]; [13]
  Plant response rating, Barnyardgrass: 0
[6]; [14]
  Plant response rating, Barnyardgrass: 20
[6]; [15]
  Plant response rating, Barnyardgrass: 0
[6]; [16]
  Plant response rating, Barnyardgrass: 10
[7]; [13]
  Plant response rating, Crabgrass, Large: 10
[7]; [14]
  Plant response rating, Crabgrass, Large: 10
[7]; [15]
  Plant response rating, Crabgrass, Large: 0
[7]; [16]
  Plant response rating, Crabgrass, Large: 0
